How the values were obtained:
[1] = biological target: T1, human RANKL (Homo sapiens, UniProt O14788); experiment: RANKL-mediated osteoclastogenesis assay with human RANKL; type: cell-based
T1 construct: purchased Peprotech
T1 sequence (O14788 143-317 limits assumed): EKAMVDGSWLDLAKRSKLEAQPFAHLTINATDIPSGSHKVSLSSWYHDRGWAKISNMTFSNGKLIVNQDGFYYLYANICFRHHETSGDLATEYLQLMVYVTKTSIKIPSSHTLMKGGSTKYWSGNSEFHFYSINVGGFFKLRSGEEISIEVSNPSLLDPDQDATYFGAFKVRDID
Description: However, SPD304 contains a potentially toxic 3-substituted indole moiety that produces reactive intermediates that possibly cause toxicities by covalently binding to nucleophilic residues of protein and/or DNA. […] These small molecules have been also tested as regards their effect on cell toxicity (FIG. 14C).
BM cells were collected after flushing out of femurs and tibiae, subjected to gradient purification using FICOLL-PAQUE™ (GE Healthcare), plated in 96-well plates at a density of 6×10^4 cells per well and cultured in αMEM medium (GIBCO) containing 10% fetal bovine serum supplemented with 50 ng/ml human RANKL (Peprotech) and 25 ng/ml M-CSF (R&D Systems) for 5 days. […] Osteoclasts were stained for TRAP activity (Sigma).

[2] = biological target: TNF (Homo sapiens, UniProt P01375); settings: cited from earlier work
[3] = MTT survival assay in osteoclast precursors; type: cell-based; settings: M-CSF, 1-20 μM, 2 days, read-out: IC50 in MTT survival assay (cell toxicity)
Protocol: (§1) However, SPD304 contains a potentially toxic 3-substituted indole moiety that produces reactive intermediates that possibly cause toxicities by covalently binding to nucleophilic residues of protein and/or DNA. […] Therefore, we investigated the potential of testing SPD304 derivatives designed to be less toxic with higher specificity for human RANKL. […] These small molecules have been also tested as regards their effect on cell toxicity (FIG. 14C).
(§2) Bone marrow (BM) cells were plated in 96-well plates at a density of 10^5 cells per well after gradient purification using FICOLL-PAQUE™ (GE Healthcare). BM cells were cultured in αMEM medium (GIBCO) containing 10% fetal bovine serum supplemented with 25 ng/ml M-CSF (R&D Systems) in the presence of the tested compounds at concentrations from 1-20 μM for 2 days (0.1% DMSO). Serum free a-MEM medium containing 0.5 mg/ml MTT [3-(4,5-Dimethylthiazol-2-yl)-2,5-diphenyltetrazolium bromide] was added for 2 hours in a 37° C. CO2 incubator. After removal of the MTT solution, DMSO was added to extract the dye from the cells and cell viability was accessed at 550 nm.

[4] = test system: osteoclast precursors; experiment: MTT survival assay in osteoclast precursors; type: cell-based
Protocol: as §1, §2

[5] = biological target: T2, GST-RANKL (Mus musculus, UniProt O35235); experiment: Ex vivo RANKL-induced osteoclast formation (BM cells, M-CSF + GST-RANKL, TRAP staining); type: cell-based; settings: BM cells, 25 ng/ml M-CSF, 80 ng/ml GST-RANKL
T2 construct: a cDNA encoding the core ectodomain of murine RANKL residues 158-316, with or without the G278R substitution; made in house; host or cells: Escherichia coli BL21
T2 sequence (O35235 158-316): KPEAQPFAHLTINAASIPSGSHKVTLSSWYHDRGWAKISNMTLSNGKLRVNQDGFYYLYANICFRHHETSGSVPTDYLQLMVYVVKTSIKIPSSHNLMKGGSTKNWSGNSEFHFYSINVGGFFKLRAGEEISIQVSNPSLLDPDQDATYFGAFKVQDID
Protocol: Instead, WT GST-RANKL (ratio 1:0) induced formation of TRAP+ giant osteoclasts (FIGS. 5A-5C). […] Incubation of WT GST-RANKL with GST at similar concentrations (12.5-100 ng/ml), didn't affect the formation of osteoclasts.
A novel small molecule inhibitor of TNF trimerization, named SPD304, has been recently reported^[35] to interact with glycine 122 (G122) that corresponds to G278 in RANKL.
BM cells were collected after flushing out of femurs and tibiae, subjected to gradient purification using FICOLL-PAQUE™ (GE Healthcare), plated in 24-well plates at a density of 5×10^5 cells per well and cultured in αMEM medium (GIBCO) containing 10% fetal bovine serum supplemented with 40 ng/ml RANKL (R&D Systems) and 25 ng/ml M-CSF (R&D Systems) for 5 days. Similarly, splenocytes were collected, plated in 24-well plates at a density of 10^6 cells per well and cultured in the presence of recombinant RANKL and M-CSF for 6 days. GST-RANKL^G278R was pre-incubated with WT GST-RANKL at room temperature for 20 min, prior to the stimulation of the BM cell cultures, in order to enable exchange of the RANKL variants and heterotrimer formation. Small molecule SPD304 (Sigma-Aldrich) was pre-incubated with 80 ng/ml GST-RANKL at various concentrations from 0.25 to 2 μM in αMEM medium for 1 hour at room temperature and then added to culture. Osteoclasts were stained for TRAP activity.

[6] = biological target: T3, soluble mouse RANKL (Mus musculus, UniProt O35235); experiment: Soluble mouse RANKL preincubated with SPD304: native gel and DSS cross-linking; type: biochemical
T3 construct: a cDNA encoding the core ectodomain of murine RANKL residues 158-316, with or without the G278R substitution; GST (N, cleaved yes); made in house; host or cells: Escherichia coli BL21
T3 sequence (O35235 158-316): T2 sequence (O35235 158-316)
Protocol: FIG. 13. Effect of SDP304 on RANKL structure. (Panel A) RANKL dimer with SPD304 located on optimum binding position. G278 is shown with space-filled atoms and SPD304 with doted surface. Cyan and green ribbons represent the two RANKL monomers. Diagram created using PYMOL v1.3. (Panel B) Recombinant WT soluble mouse RANKL (60 ng) was preincubated for 1 hour at 37° C. either with SPD304 at various concentrations from 6-200 μM or without SPD304 (−), resolved on native gel and detected by Western blotting using a polyclonal antibody against RANKL. (Panel C) Recombinant soluble mouse RANKL was preincubated with SPD304 at increasing concentrations from 6-100 μM, was cross-linked with DSS, run on 12% SDS-PAGE and detected by Western blot using an anti-RANKL polyclonal antibody. A representative figure of three independent experiments is shown for Western blots.
Experimental evidence on the TNF analogue and in silico binding studies on mouse RANKL confirm that the optimal binding position of SPD304, causing trimer inhibition, is located very close (<4 Å) to the G278 mutation position in the structure (FIG. 13, Panel A). To experimentally confirm the interference of the SPD304 with the RANKL structure, soluble mouse RANKL was preincubated with increasing concentrations of SPD304 (6-200 μM) and analyzed in native gels showing the natural conformation of RANKL protein (FIG. 13, Panel B). […]

[7] = biological target: T4, BAFF (Homo sapiens, UniProt Q9Y275); experiment: BAFF cross-linking and Western (trimer formation); type: biochemical; settings: DSS cross-linking
T4 construct: a cDNA encoding the core ectodomain of human BAFF residues 134-285 (17.5 kD), with or without the G249R substitution; GST (N, cleaved yes); made in house; host or cells: E. coli BL21
Description: (§3) Glycine at codon 278 of mouse RANKL is highly conserved among various members of the TNF superfamily. In order to investigate whether this glycine to arginine substitution is also critical for trimerization in other TNF superfamily members, we reproduced this mutation in human BAFF (BAFF^G249R), a cytokine that activates B lymphocytes. Thus, we produced recombinant GST-BAFF in E coli and subsequently the soluble BAFF was released from GST by proteolytic cleavage. […] To examine whether soluble BAFF^G249R binds to BAFF receptor (BAFFR), serial dilutions of human BAFFR-Fc were incubated with immobilized soluble BAFF or BAFF^G249R (FIG. 21B). […] Thus, substitution of this conserved glycine abrogates trimerization not only in RANKL but also in other TNF superfamily members such as TNF, BAFF and possibly in many more.
The chemical cross-linking reagent disuccinimidyl suberate (DSS, Sigma) was used to examine the trimeric property of BAFF as previously described (Douni et al., 2012). Various amounts of BAFF proteins in PBS buffer (pH 7.5) were mixed with 1 mM DSS (the molar ratio of DSS is 10:1). The cross-linking reactions were carried out for 1 hour at room temperature and terminated with 50 mM Tris (pH 7.5) for 30 minutes. Proteins from reaction mixtures were separated on 12% SDS-PAGE and proceeded in Western blot using a polyclonal anti-BAFF antibody (PeproTech).

[8] = test system: BAFFR-Fc; experiment: BAFF/BAFF receptor ELISA; type: binding; settings: serial dilutions of human BAFFR-Fc
Description: as §3
Nunc plates were coated with 3 μg/ml recombinant soluble human BAFF or BAFF^G249R and incubated with increasing amount of recombinant human BAFFR-Fc (R&D Systems). BAFFR binding was detected with a horseradish peroxidase (HRP) conjugated goat anti-human IgG (Fc) (SouthernBiotech, Birmingham, USA) using o-phenylenediamine (OPD) substrate (Thermo Scientific Pierce) that was measured at 490 nm.

[9] = biological target: T5, binding of human RANKL to its receptor RANK (Homo sapiens, UniProt O14788); experiment: RANKL/RANK ELISA; settings: peptides 3-100 μM, dose dependent
T5 construct: a cDNA encoding the core ectodomain of human RANKL residues 143-317 (20 kD), was cloned into pGEX-6P-1; GST (N, cleaved yes); host or cells: Escherichia coli BL21 (RANKL)
T5 sequence (O14788 143-317): T1 sequence (O14788 143-317 limits assumed)
Protocol: Nunc plates were coated with 100 μl of 250 ng/ml recombinant soluble human RANK-Fc (R&D Systems) overnight. Recombinant soluble human RANKL at 200 ng/ml was pre-incubated with increasing amounts of peptides (3-100 μM) for 1 hour at 37° C. and was added in the RANK-coated wells. RANKL binding was detected with a polyclonal goat anti-RANKL antibody (R&D Systems), followed by a horseradish peroxidase (HRP) conjugated horse anti-goat IgG (Vector) using o-phenylenediamine (OPD) substrate (Thermo Scientific Pierce) that was measured at 490 nm.

Chain of TNF (P01375 77-233 limits assumed): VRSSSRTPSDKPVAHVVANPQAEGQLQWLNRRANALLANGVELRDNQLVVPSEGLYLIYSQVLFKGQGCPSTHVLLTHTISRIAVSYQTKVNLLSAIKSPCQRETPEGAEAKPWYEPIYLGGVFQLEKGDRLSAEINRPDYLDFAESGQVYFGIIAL
T4 sequence (Q9Y275 134-285): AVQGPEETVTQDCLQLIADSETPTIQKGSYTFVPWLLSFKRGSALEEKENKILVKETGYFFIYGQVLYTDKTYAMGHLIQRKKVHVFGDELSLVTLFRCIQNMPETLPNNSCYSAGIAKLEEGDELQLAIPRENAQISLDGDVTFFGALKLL

Cc1cc2occ(CN(C)CCN(C)Cc3cn(-c4cccc(C(F)(F)F)c4)c4ccccc34)c(=O)c2cc1C [SPD304, 6,7-Dimethyl-3-[[methyl[2-[methyl[[1-[3-(trifluoromethyl)phenyl]-1H-indol-3-yl]methyl]amino]ethyl]amino]methyl]-(4H-1-Benzopyran-4-one)]
inhibition of human RANKL function in osteoclastogenesis ([1]; 2 μM): effective in inhibiting human RANKL function | inhibition of TNF trimerization and function [2]: effectively inhibits TNF trimerization and function | IC50 at 2 days [3]: 3.4 µM | toxic concentrations in MTT survival assay [4]: above 5 μM | formation of TRAP+ multinucleated osteoclasts ([5]; SPD304 at 1 μM): attenuated both the number and the size of TRAP+ multinucleated cells | formation of multinuclear TRAP+ osteoclasts ([5]; SPD304 at 2 μM): completely inhibited | RANKL forms after chemical cross-linking ([6]; SPD304 6-100 μM, DSS): dramatic increase of RANKL dimers and monomers | RANKL conformation in native gel ([6]; SPD304 6-200 μM, 1 hour at 37° C.): a second band of lower molecular weight was also evident

BAFF^G249R: soluble human BAFF residues 134-285 with the G249R substitution
BAFF trimer assembly [7]: failure of spontaneous trimer assembly | binding to BAFF receptor [8]: cannot bind to its receptor

HFYSINVGRFFK (RANKL fragment) [peptide 2]
inhibition of RANKL function in RANKL-dependent osteoclastogenesis assays ([1]; peptides at 50 μM (FIG. 16A)): inhibited the function of RANKL | inhibition of binding of human RANKL to RANK [9]: inhibit the binding of human RANKL to its receptor RANK
